Measured values as given in EP4775586A1, “DEUTERATED TETRACYCLIC DERIVATIVE AND USE THEREOF” (priority 2023, dated 2025).
≈ marks a conversion by molar mass, not a printed value. Where “and” joins values, the source holds several entries; their conditions need not be identical. Identical values can stand only once. Counter-ions that a name gives are not always drawn. Like-named read-outs stand apart in the source and are kept apart here.

Columns and labels:
[1] = Pharmacokinetics and lung tissue distribution in mice, LC-MS/MS; assay type: in vivo, Balb/C mice; conditions: 100 mg/kg
Experimental: In this example, the pharmacokinetic parameters and lung tissue distribution of the deuterated compounds YF027, YF032, YF036, and YF044 and their respective non-deuterated control compounds (A, B, C, and D) were determined.
Balb/C mice, male (1 group at each time point, 5 mice per group, 55 mice per compound in total), 7-8 weeks old, weighing about 20 g, animal source: Beijing Vital River Laboratory Animal Technology Co., Ltd.
The test compound was completely dissolved in an 8% Tween-80 aqueous solution. A 10 mg/mL drug liquid was prepared for intraperitoneal injection and intragastric administration.
Single intragastric administration was performed at a dose of 100 mg/kg. The pharmacokinetic differences between the deuterated compounds YF027, YF032, YF036, and YF044 and their respective non-deuterated controls A, B, C, and D were compared.
The mice were fasted overnight before administration. In the experiment, orbital venous blood and lung tissue were collected from the mice at time points of no administration group (0 min) and 10 min, 20 min, 30 min, 1 h, 2 h, 3 h, 4 h, 6 h, 8 h, and 24 h after intragastric administration, and about 300 µL of blood was collected from the eyeballs each time.
The collected blood sample was placed in an anticoagulation tube, and quickly inverted and mixed well. The tube was temporarily placed on ice after being labeled. The blood samples temporarily stored on ice were subjected to low-temperature centrifugation within 1 h at 4 °C at 3000 rpm for 10 min. The supernatant obtained after centrifugation was plasma. The plasma was transferred to a new centrifuge tube and stored in a refrigerator at -80 °C for subsequent detection.
The lung tissues of the mice were collected, washed with pre-cooled normal saline to remove the residual blood and tissue fluid, dried with absorbent paper, weighed with a balance, and placed into a centrifuge tube. The tubes were marked and stored in a refrigerator at -80 °C.
The concentrations of the compounds of the present disclosure and control compounds in plasma and lung tissue were determined using LC-MS/MS. Table 2. Pharmacokinetic parameters of compound YF027 of the present disclosure and control compound A

[2] = system: Mycobacterium tuberculosis H37Rv; assay: Minimum inhibitory concentration (MIC90) against Mycobacterium tuberculosis H37Rv, Middlebrook 7H9, 96-well plate, 15 days; assay type: cell-based; conditions: Mycobacterium tuberculosis H37Rv, 15 days of incubation, 90% inhibition of growth, visual reading
[3] = system: Mycobacterium tuberculosis H37Rv; assay type: in vivo, BALB/c mice
[4] = system: liver microsomes; assay: Liver microsome incubation of positive control group (positive substrates); assay type: in vitro ADME, mouse
Experimental: This example was to detect the CYP450 metabolic enzyme phenotype of the deuterated compound YF027 and its non-deuterated control compound A (using a CYP450 enzyme metabolic phenotype research kit (recombinant enzymatic method/7 enzymes)-mouse liver microsome test).
• a. The test compound was prepared into a 40 mM stock solution for later use. 2.5 µL of the stock solution was taken and diluted with DMSO to a test compound concentration of 200 µM, and the compound at this concentration was used in subsequent tests. • b. The working solution concentration of the mixed positive substrates, phenacetin and testosterone, was 200 µM.
1) The components of the kit were thawed in an ice bath. The mixture was well mixed by vortexing and then placed on ice for later use. 2) In addition to the microsomes, the other components of the incubation systems were mixed according to the ratios and well mixed by pipetting, and the ratios of the incubation systems are shown below; Table 6. Incubation system of positive control group
3) Except for the negative control group (Table 9), 3.125 µL of liver microsomes was added to each of the above incubation systems to prepare 125 µL of reaction solution. The reaction solutions were well mixed by vortexing, and then placed in a water bath at 37 °C to initiate the reaction. A timer was set. […]

[5] = Balb/C mice, single intragastric administration, plasma
[6] = Balb/C mice, single intragastric administration, plasma, 1440 min
[7] = Mycobacterium tuberculosis, H37RV, 360 h

Compound	AUC(0-inf) ([1]; mouse, in vivo, po) [ng·h/mL]	AUC(0-t) at 24 h ([1]; mouse, in vivo, po) [ng·h/mL]	CL ([1]; mouse, in vivo, po) [mL/min/kg]	Cmax ([1]; mouse, in vivo, po)	half-life ([1]; mouse, in vivo, po) [h]	MIC90 ([2]; 360 h, read-out: MIC90) [µg/mL]	Tmax ([1]; mouse, in vivo, po) [h]	MIC90 [2] [µg/mL]	other results
CCCC(O)C1CCN(Cc2c(O)ccc3oc4c(c23)C(=O)OCc2cc(O)ccc2-4)CC1 (centres unmarked) [Compound D]	4500	4470	371.3	2110 ng/mL and 13500 ng/g	2.86	0.0156 (≈ 0.0346 µM)	–	–	–
3,9-Dihydroxy-8-((4-(1-hydroxybutyl-1-d)piperidin-2,2,6,6-d4-1-yl)methyl)benzo[5,6]oxepino[4,3-b]benzofuran-7(5H)-one hydrochloride [YF044]	–	–	150	4041.90 ng/mL	–	–	0.50	0.0078	AUC0-∞ ([1]; mouse, in vivo, po): 111067.0 ng·h/mL; Lung tissue distribution Cmax ([1]; mouse, in vivo, po): 43437.42 ng/g; t1/2 ([1]; mouse, in vivo, po): 2.03 h; AUC0-t ([1]; mouse, in vivo, po, 24 h): 11104.68 ng·h/mL
O=C1OCc2cc(O)ccc2-c2oc3ccc(O)c(CN4CCC(c5cccc(Cl)c5)CC4)c3c21 [Compound B]	10400	10300	161	3570 ng/mL and 23400 ng/g	1.74	0.125 (≈ 0.255 µM)	1	–	bacteriostatic activity in mice ([3]; 4 weeks intragastrically, Table 11 prints 50 mg/kg, text implies twice the dose of YF032): no bacteriostatic activity
8-((4-(3-Chlorophenyl)piperidin-1-yl-2,2,6,6-d4)methyl-d2)-3,9-dihydroxybenzo[5,6]oxepino[4,3-b]benzofuran-7(5H)-one hydrochloride [YF032]	–	–	–	–	–	–	–	0.0625	reduction in bacterial load ([3]; mouse, in vivo): 0.81 log; AUC0-∞ [1, 5]: 14032.28 ng·h/mL; CL [1, 5]: 119 mL/min/kg; Cmax [1, 5]: 4332.29 ng/mL; Tmax [1, 5]: 1.00 h; t1/2 [1, 5]: 1.85 h; AUC0-t [1, 6]: 14030.17 ng·h/mL
CCCC(=O)C1CCN(Cc2c(O)ccc3oc4c(c23)C(=O)OCc2cc(O)ccc2-4)CC1 [Compound C]	5430	4960	307.2	944 ng/mL and 5420 ng/g	7.12	0.0625 (≈ 0.139 µM)	0.5	–	reduction of pulmonary bacterial load ([3]; mouse, in vivo): 1.99 log
CCOc1ccc(NC(C)=O)cc1 [phenacetin]	–	–	–	–	–	–	–	–	metabolism of positive substrate [4]: almost completely metabolized
C[C@]12CC[C@H]3[C@@H](CCC4=CC(=O)CC[C@@]43C)[C@@H]1CC[C@@H]2O [testosterone]	–	–	–	–	–	–	–	–	metabolism of positive substrate ([4]; liver microsomes, after 90 min of incubation, 37 °C): almost completely metabolized
[2H]c1c(O)c(C([2H])([2H])N2CCC([2H])(C(O)C([2H])([2H])CC)CC2)c2c3c(oc2c1[2H])-c1ccc(O)cc1C([2H])([2H])OC3=O (centres unmarked) [YF047, 3,9-Dihydroxy-8-((4-(1-hydroxybutyl-2,2-d2)piperidin-1-yl-1-d)methyl-d2)benzo[5,6]oxepino[4,3-b]benzofuran-7(5H)-one-5,5,10,11-d4 hydrochloride]	–	–	–	–	–	–	–	–	MIC90 [2, 7]: 0.0156 µg/mL
8-((4-Butanoylpiperidin-1-yl-2,2,6,6-d4)-methyl-d2)-3,9-dihydroxybenzo[5,6]oxepino[4,3-b]benzofuran-7(5H)-one hydrochloride [YF036]	–	–	–	–	–	–	–	0.03125	reduction of pulmonary bacterial load ([3]; mouse, in vivo): 1.87 log; AUC0-∞ [1, 5]: 5883.88 ng·h/mL; CL [1, 5]: 283.3 mL/min/kg; Cmax [1, 5]: 2084.39 ng/mL; Tmax [1, 5]: 0.33 h; t1/2 [1, 5]: 4.75 h; AUC0-t [1, 6]: 5655.66 ng·h/mL
[2H]C([2H])(c1c(O)cc(C(C)(C)C)c2oc3c4ccc(O)cc4oc(=O)c3c12)N1C([2H])([2H])C([2H])([2H])C([2H])([2H])C([2H])([2H])C1([2H])[2H] [YF005, 10-(tert-Butyl)-3,8-dihydroxy-7-((piperidin-1-yl-d10)methyl-d2)-6H-benzofuran[3,2-c]chromen-6-one]	–	–	–	–	–	–	–	–	MIC90 [2, 7]: ≤ 0.0039 µg/mL
